Source: patent US7855292B2, “Sulfonamide compounds” (Janssen Pharmaceutica NV, priority 2004, dated 2010)
Where a name gives a salt, the structure may show the parent alone.

Target: T1, CCK2 receptor (Homo sapiens, UniProt P32239)
T1 construct: analyzed for ZFP expression as well as CCK2R induction upon addition of doxycycline to the culture medium; endogenous in cells
T1 sequence (P32239 1-447): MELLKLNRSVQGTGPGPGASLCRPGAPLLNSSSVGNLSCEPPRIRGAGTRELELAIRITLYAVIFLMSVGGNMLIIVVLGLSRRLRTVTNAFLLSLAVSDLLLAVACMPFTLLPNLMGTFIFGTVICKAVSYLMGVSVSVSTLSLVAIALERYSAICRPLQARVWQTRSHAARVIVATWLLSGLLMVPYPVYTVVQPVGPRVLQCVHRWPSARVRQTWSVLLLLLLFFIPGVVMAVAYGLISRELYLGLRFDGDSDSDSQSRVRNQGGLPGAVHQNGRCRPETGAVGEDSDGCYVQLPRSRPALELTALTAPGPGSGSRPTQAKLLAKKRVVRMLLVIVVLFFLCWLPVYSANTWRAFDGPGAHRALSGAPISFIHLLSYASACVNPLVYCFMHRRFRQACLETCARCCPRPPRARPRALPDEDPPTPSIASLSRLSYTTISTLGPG
Assay: CCK2 binding assay ([125I]-BH-CCK-8S displacement, HEKZFP membranes)
Conditions: membranes of doxycycline-induced HEKZFP cells; 20 pM [125I]-BH-CCK-8S; 60 min at 21±3° C.
Description: 2. CCK2 Assay Development and Data Generation
Zinc Finger Proteins (ZFP) specific for the CCK2R gene were identified by Sangamo Biosciences. The ZFP domain was fused with the herpes simplex virus VP16 activation domain, and the fusion protein was subsequently cloned into the pcDNA3 mammalian expression vector (Invitrogen, San Diego, Calif.). […] After 2 weeks of selection in culture medium containing […] Zeocin (Invitrogen), sixty drug-resistant stable clones were isolated and analyzed for ZFP expression as well as CCK2R induction upon addition of doxycycline to the culture medium.
HEKZFP cells were grown in DMEM supplemented with L-glutamine (2 mM), penicillin (50 units/mL) and streptomycin (50 μg/mL) and 10% FBS (v/v).
Membranes were prepared from the HEKZFP cells after induction. […] The thawed pellets were homogenized using a Polytron PT-10 (7×1 s). The homogenates were centrifuged for 5 min at 1500 rpm (600×g), and the resulting pellets were discarded. The supernatants were re-centrifuged in order to collect the receptor-membrane pellets (25 min 15,000 rpm; 39,800×g), which were re-suspended in buffer A.
The assay preparation was incubated for 1 h at 21±3° C., and then the assay was terminated by rapid filtration of the preparation under reduced pressure. The loaded filters were washed three times using undiluted PBS (100 μL), and then 100 μL of scintillation fluid was added to the filter plate. Bound radioactivity was determined using a Topcount (Packard BioScience, Meriden, Conn.) with a count time of 1 min. […] To validate the radioligand concentration and incubation time for the assay, saturation and kinetic binding studies were also conducted (see M. F. Morton, The Pharmacological Characterization of Cholecystokinin Receptors in the Human Gastrointestinal Tract. PhD Thesis, University of London, 2000). […] The assay was then terminated according to the procedure outlined above.
(§1) 3. Data Analysis for CCK1 and CCK2 Binding Assays
The pKi values were determined using the equation of Y.-C.
(§2) [formula] To circumvent problems associated with computer-assisted data analysis of compounds with low affinity, the data obtained in the current study were weighted according to a method described by Morton. In brief, 100% and 0% specific binding were defined independently using total binding and binding obtained in the presence of a high concentration of the reference antagonist, 2-NAP.

CCK2 pKi	SMILES
5.9	O=C(N[C@H](C(=O)O)C(c1ccc(Cl)cc1)c1ccc(Cl)cc1)c1ccc(Cl)cc1NS(=O)(=O)c1cccc2nsnc12 [Example 106, (S)-2-[2-(Benzo[1,2,5]thiadiazole-4-sulfonylamino)-4-chloro-benzoylamino]-3,3-bis-(4-chloro-phenyl)-propionic acid]
8.0	O=C(N[C@@H](Cc1ccc(F)c(Br)c1)C(=O)O)c1cc(Cl)c(Cl)cc1NS(=O)(=O)c1cccc2nsnc12 [Example 157, (S)-2-[2-(Benzo[1,2,5]thiadiazole-4-sulfonylamino)-4,5-dichloro-benzoylamino]-3-(3-bromo-4-fluoro-phenyl)-propionic acid]

Same assay, conditions: membranes of doxycycline-induced HEKZFP cells; 20 pM [125I]-BH-CCK-8S; 60 min at 21±3° C.; read-out: CCK2 pKi (converted)

SMILES	Ki [nM]
O=C(N[C@@H](Cc1ccc(F)c(F)c1)C(=O)O)c1ccc(Cl)cc1NS(=O)(=O)c1cccc2nccnc12 [Example 85, (S)-2-[4-Chloro-2-(quinoxaline-5-sulfonylamino)-benzoylamino]-3-(3,4-difluoro-phenyl)-propionic acid]	63.1
O=C(N[C@@H](Cc1ccccc1)C(=O)O)c1ccc(I)cc1NS(=O)(=O)c1cccc2scnc12 [Example 28, 2-[2-(Benzothiazole-4-sulfonylamino)-4-iodo-benzoylamino]-3-phenyl-propionic acid]	79.4
O=C(N[C@@H](Cc1ccccc1)C(=O)O)c1ccc(I)cc1NS(=O)(=O)c1cccc2nccnc12 [Example 27, 2-[4-Iodo-2-(quinoxaline-5-sulfonylamino)-benzoylamino]-3-phenyl-propionic acid]	31.6
O=C(N[C@@H](Cc1ccccc1)C(=O)O)c1ccc(Br)cc1NS(=O)(=O)c1cccc2nsnc12 [Example 25, 2-[2-(Benzo[1,2,5]thiadiazole-4-sulfonylamino)-4-bromo-benzoylamino]-3-phenyl-propionic acid]	39.8
N#Cc1ccc(C[C@H](NC(=O)c2ccc(Cl)cc2NS(=O)(=O)c2cccc3nccnc23)C(=O)O)cc1 [Example 86, (S)-2-[4-Chloro-2-(quinoxaline-5-sulfonylamino)-benzoylamino]-3-(4-cyano-phenyl)-propionic acid]	31.6
N#Cc1cccc(C[C@H](NC(=O)c2ccc(Cl)cc2NS(=O)(=O)c2cccc3nccnc23)C(=O)O)c1 [Example 63, (S)-2-[4-Chloro-2-(quinoxaline-5-sulfonylamino)-benzoylamino]-3-(3-cyano-phenyl)-propionic acid]	31.6
O=C(N[C@@H](Cc1ccsc1)C(=O)O)c1ccc(Cl)cc1NS(=O)(=O)c1cccc2nccnc12 [Example 87, (S)-2-[4-Chloro-2-(quinoxaline-5-sulfonylamino)-benzoylamino]-3-thiophen-3-yl-propionic acid]	158
O=C(N[C@@H](Cc1cccc([N+](=O)[O-])c1)C(=O)O)c1ccc(Cl)cc1NS(=O)(=O)c1cccc2nccnc12 [Example 84, (S)-2-[4-Chloro-2-(quinoxaline-5-sulfonylamino)-benzoylamino]-3-(3-nitro-phenyl)-propionic acid]	31.6

Other lines, results leading:

Ki [nM]	SMILES
794	CN(CCc1ccccn1)C(=O)c1ccc(Cl)cc1NS(=O)(=O)c1cccc2nsnc12 [Example 51, 2-(Benzo[1,2,5]thiadiazole-4-sulfonylamino)-4-chloro-N-methyl-N-(2-pyridin-2-yl-ethyl)-benzamide hydrochloride]
31.6	O=C(N[C@@H](Cc1ccsc1)C(=O)O)c1ccc(Cl)cc1NS(=O)(=O)c1cccc2nsnc12 [Example 77, (S)-2-[2-(Benzo[1,2,5]thiadiazole-4-sulfonylamino)-4-chloro-benzoylamino]-3-thiophen-3-yl-propionic acid]

Target: T2, CCK-1 receptor (Homo sapiens, UniProt P32238)
T2 construct: expressed in transfected cells; host or cells: CHO-K1
T2 sequence (P32238 1-428): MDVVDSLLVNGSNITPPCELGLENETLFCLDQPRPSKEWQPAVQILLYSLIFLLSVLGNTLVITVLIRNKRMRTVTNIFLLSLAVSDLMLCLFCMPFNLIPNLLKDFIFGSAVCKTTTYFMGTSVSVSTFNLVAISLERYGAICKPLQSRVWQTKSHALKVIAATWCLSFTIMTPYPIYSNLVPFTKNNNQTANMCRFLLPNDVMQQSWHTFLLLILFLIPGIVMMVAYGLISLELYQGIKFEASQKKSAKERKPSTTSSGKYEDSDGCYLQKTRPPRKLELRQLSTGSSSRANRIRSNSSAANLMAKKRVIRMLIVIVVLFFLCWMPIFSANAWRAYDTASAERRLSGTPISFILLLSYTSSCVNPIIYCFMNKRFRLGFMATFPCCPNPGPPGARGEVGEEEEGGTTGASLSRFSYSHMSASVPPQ
Assay: CCK1 binding assay ([125I]-BH-CCK-8S displacement, CHO-K1 membranes)
Conditions: membranes of CHO-K1 cells stably transfected with the CCK-1 receptor; 20 pM [125I]-BH-CCK-8S; 0.3 μM PD-134,308 present; 60 min at 21±3° C.
Description: 1. CCK1 Assay Development and Data Generation
CHO-K1 cells that had undergone stable transfection with the CCK-1 receptor were grown in DMEM supplemented with L-glutamine (2 mM), penicillin (50 units/mL) and streptomycin (50 μg/mL). Cells were cultured under continuous G418 selection (2 mM) and were harvested using a rubber cell scraper. CHO-K1 cells were sub-cultured a maximum of ten times before being reseeded from the original stocks.
Membranes were prepared from the stably transfected CHO-K1 cells. Frozen cell pellets (−40° C.) were thawed in 14 mL of buffer A (10 mM HEPES, 130 mM NaCl, 4.7 mM KCl, 5 mM MgCl, 1 mM EGTA and 15.4 mg/100 mL bacitracin at pH 7.2), adapted from Harper et al. (Br. J. Pharmacol. 1996, 118:1717-1726). The thawed pellets were homogenized using a Polytron PT-10 (7×1 s). The homogenates were centrifuged for 5 min at 1500 rpm (600×g), and the resulting pellets were discarded. The supernatants were re-centrifuged in order to collect the receptor-membrane pellets (25 min 15,000 rpm; 39,800×g), which were re-suspended in buffer A.
All assays were conducted in 96-well plates (GF/B millipore filter plates) using buffer A, with 0.3 μM PD-134,308, for the dilutions. The CCK-2 receptor ligand was included to eliminate the contribution of this receptor subtype to the binding. For the optimal cell number determination experiments 20 pM [^125I]-BH-CCK-8S (50 μL […] solution) was incubated with a range of cell concentrations ([…] to 12.5×10^5 cells/well) in a total volume of 150 μL. Total binding of [^125I]-BH-CCK-8S was determined in the presence of 15 μL of buffer A. Non-specific binding of [^125I]-BH-CCK-8S was determined in the presence of 15 μL of 100 μM 2-naphthalenesulphonyl L-aspartyl-(2-phenethyl)amide (2-NAP: see R. A. Hull et al. Br. J. Pharmacol. 1993, 108:734-740), a CCK-1 receptor selective antagonist that is structurally unrelated to the radioligand [^125I]-BH-CCK-8S. The assay preparation was incubated for 1 h at 21±3° C., and then the assay was terminated upon rapid filtration of the preparation under reduced pressure. The loaded filters were washed three times using undiluted PBS ([…]), and then the residues were transferred to 5 mL scintillation tubes. Bound radioactivity was determined using a gamma counter (count time=1 min). […] To validate the radioligand concentration and incubation time for the assay, saturation and kinetic binding studies were also conducted (see M. F. Morton, The Pharmacological Characterization of Cholecystokinin Receptors in the Human Gastrointestinal Tract. PhD Thesis, University of London, 2000). […] The assay was then terminated according to the procedure outlined above.
as §1
The pKi values were determined using the equation of Y.-C. Cheng and W. H. Prusoff (Biochem. Pharmacol., 1973, 22(23):3099-3108):
as §2

CCK1 pKi	SMILES
7.1	O=C(N[C@H](Cc1ccc(Cl)c(Cl)c1)C(=O)O)c1ccc(Cl)cc1NS(=O)(=O)c1cccc2nsnc12 [Example 118, (R)-2-[2-(Benzo[1,2,5]thiadiazole-4-sulfonylamino)-4-chloro-benzoylamino]-3-(3,4-dichloro-phenyl)-propionic acid]
7.5	O=C(NCC(c1ccc(Cl)cc1)c1ccc(Cl)cc1)c1ccc(Cl)cc1NS(=O)(=O)c1cccc2nsnc12 [Example 6, 2-(Benzo[1,2,5]thiadiazole-4-sulfonylamino)-N-[2,2-bis-(4-chloro-phenyl)-ethyl]-4-chloro-benzamide]
6.6	O=C(N[C@@H](Cc1ccc(Cl)c(Cl)c1)C(=O)O)c1ccc(Cl)cc1NS(=O)(=O)c1cccc2nsnc12 [Example 117, (S)-2-[2-(Benzo[1,2,5]thiadiazole-4-sulfonylamino)-4-chloro-benzoylamino]-3-(3,4-dichloro-phenyl)-propionic acid]
